This passage reports solubility and Solubility in water results from patent US10226534B2, “Semi-solid delivery systems” (REGENTS OF THE UNIVERSITY OF MINNESOTA, priority 2013, dated 2019).

What is called solubility is the dissolved amount per volume that the medium holds. Read a high solubility as a readily soluble substance.

Converted amounts (≈) assume the structure as drawn.

The series in a line: Solubilization of Nile Red in water aided by the semi-solid polymer. It is filed as physicochemical. How it is done:
Nile Red (NR) is a hydrophobic molecule that is insoluble in water. 3 mg of NR solid particles suspended in 1 mL of aqueous phosphate buffered saline (PBS) without dissolving. With addition of 10% semi-solid polymer (100 mg), NR is completely solubilized in PBS to 3 mg/mL.

For the compound `CCN(CC)c1ccc2nc3c4ccccc4c(=O)cc-3oc2c1` [Nile Red], where the note is “PBS with 10% semi-solid polymer, aqueous with cosolvent or surfactant or cyclodextrin, thermodynamic from solid, with addition of 10% semi-solid polymer (100 mg in 1 mL PBS)”, the solubility came out at 3000 µg/mL (≈ 9.42 mM). Besides, under “without polymer”, the Solubility in water entry is on record as “insoluble”.
